# Results published in a melting point compilation (Tetko et al.; mined from patent text by program, amines drawn as free bases though some values may be those of a salt).
row,Structure (SMILES),melting point
1,O=C1Nc2ccc(I)cc2C1=NNC(=O)C1CCN(Cc2cccnc2)CC1,125 °C
2,O=C(c1ccc(Cl)cc1)C(Br)c1ccc(Cl)cc1 (stereo not drawn),81.5 to 83 °C
3,Cc1cc(NC(=O)C2=C(O)CN(C)S(=O)(=O)N2C)no1,189 to 192 °C
4,CC(C)(C)c1cc2c(Cl)ncnc2o1,72 to 74 °C
5,Sc1nc(-c2ccc3c(c2)OCO3)c(-c2ccc3c(c2)OCO3)[nH]1,282 to 283 °C
6,O=[N+]([O-])c1cccnc1NCc1ccc(F)cc1,76 °C
7,Oc1ccc(Oc2cccc(Cl)n2)cc1,125 to 130 °C
8,COc1ccc(Cc2oc3ccc(O)cc3c2C)cc1,128 to 131 °C
9,COc1cccc(CNc2ncnc3c2sc2nc(N(C)C)c4c(c23)C(C)(C)CC4)c1OC,91.9 to 93.6 °C
10,COc1cc(OC)c2c(c1)c(-c1cc3cccnc3[nH]1)cn2C,220 °C
11,CCN1C(=O)CCCc2cc(Nc3ncc(Cl)c(Nc4c(F)cccc4C(=O)NC)n3)c(OC)cc21,254 to 256 °C
12,CC(C)C(CC(O)C(CC1CCCCC1)NC(=O)C(Cc1c[nH]cn1)NC(=O)C(N)Cc1ccccc1)C(O)CN(Cc1ccccn1)C(=O)OCc1ccccc1 (mixture of isomers),94 °C
13,O=c1oc2c(c(O)c1C(c1ccccc1)C1CC1)CCCCCCCC2 (stereo not drawn),87.6 to 90.4 °C
14,CCOP(=O)(Cc1cc(C2CCCCC2)c(O)c(C2CCCCC2)c1)OCC,120 °C
15,CCC(Cn1nccn1)n1nnc2cc3c(=O)n(C(C)Cn4ncnn4)nnc3cc2c1=O (stereo not drawn),162 to 163 °C
16,COC(=O)[C@@H]1CCCC[C@@H]1C(=O)N(C)CC(=O)NO (relative stereo),101 to 102 °C
17,CCCCCCCCCCCCCCCCSCC1(CNS(=O)(=O)CCCCl)CCCO1 (stereo not drawn),44.5 to 45.5 °C
18,Cc1nc2nccc(-c3cccc(C(F)(F)F)c3)n2n1,153 to 154 °C
19,Nc1nc(S(N)(=O)=O)c2ncn(C3OC(CO)C(O)C3O)c2n1 (stereo not drawn),> 193 °C
20,Fc1cccc2c(OCCc3ccc(Cl)cc3)ccnc12,139 to 140 °C
21,OC1CSC(Oc2cncc(-c3ccc(F)cc3Cl)c2)C(O)C1O (stereo not drawn),208 to 211 °C
22,Oc1ccc2c(c1)CCC(CNCC(O)c1ccc(Cl)cc1)C2 (stereo not drawn),150 to 153 °C
23,O=C(Nc1ccccc1)O[C@@H]1CN=C(c2ccccc2)O[C@H]1c1ccccc1 (racemic),111 °C
24,Cc1noc(-c2ccc(S(C)(=O)=O)cc2)c1-c1ccc(-c2cscn2)cc1,119 °C

# Further lines, results first:
row,melting point,Structure (SMILES)
1,195 to 196 °C,Cc1ccccc1-c1c(NC(=O)Nc2c(C)cccc2C(C)C)c(=O)n(C)c2ccc(Cl)cc12
2,189 to 190 °C,CNC(=O)c1cccc(NC(=O)NCc2ccccc2)c1
3,150 to 151 °C,COc1ccc2c(c1)C(=O)c1c-2c(N2CCNCC2)nc2ccccc12
4,90 to 96 °C,CN(C)C(=O)c1cccc(CN2C(=O)C3(COc4cc5c(cc43)OCCO5)c3ccccc32)c1 (stereo not drawn)
5,131 to 132 °C,CCOC(=O)c1nc(-c2ccc(Cl)cc2F)nc(N)c1Cl
6,93 to 95 °C,COC(=O)c1sccc1NC(C)=O
7,126 to 128 °C,COCCOc1ccc(/C=C/C(=O)NS(=O)(=O)C(F)(F)F)c(Oc2ncc(C(F)(F)F)cc2Cl)c1
8,98 to 99 °C,CCOC(=O)C1(C(=O)OCC)N(c2ccccc2)C(=O)CC1(C)O (stereo not drawn)
9,> 300 °C,CC(C)Cn1c(=O)n(C)c(=O)c2nc(-c3ccc(/C=C/C(=O)O)cc3)[nH]c21
10,112 to 114 °C,CC(C)c1cccc(C(C)C)c1NC(=O)N(Cc1ccccc1)CC1(c2ncccn2)CCCCC1
11,235 to 238 °C,O=C(O)CN1C(=O)C(=Cc2ccc(OCc3ccccc3)c(OCc3ccccc3)c2)SC1=S
12,156 °C,CCOC(=O)c1cn(CC)c2nc(Cl)ncc2c1=O
13,205 to 207 °C,CCCn1c(=O)c2[nH]c(-c3cc(C)n(CC(=O)Nc4ccc(F)cc4)n3)nc2n(CCC)c1=O
14,203 to 206 °C,CCOC(=O)c1cc(-n2c(=O)c3c(n(C)c2=O)CSC3)ccc1Cl
